Measurements reported in PMC3913620, “Preclinical Evaluation of the Novel, Orally Bioavailable Selective Inhibitor of Nuclear Export (SINE) KPT-335 in Spontaneous Canine Cancer: Results of a Phase I Study” (PLoS ONE, 2014).
Values joined by “and” are separate entries in the source; they are usually repeats but may differ in a detail not shown here. Equal values may be shown once.

Legend:
[1] = Owner-assessed quality of life questionnaire; format: in vivo, dogs
Source text: A tool to assess quality of life in dogs with cancer during treatment has been previously published. This was used to assess owner perceived changes in dogs undergoing KPT-335 treatment during both the dose escalation and dose expansion studies. An overall quality of life (QOL) score was created based on answers to the questions on the quality of life questionnaire. The scores from each question were summed resulting in an overall quality of life score which could range from 23 to 115. Trends in Quality of Life (QOL) during the study were examined using linear mixed models containing fixed effects of time and an autoregressive correlation structure for the random errors. Wald tests were used to test for a significant change in QOL with degrees of freedom calculated using the Kenward-Roger method. Measurements obtained after 90 days were not included in the analysis for the dose escalation study and measurements after 70 days were not included in the analysis of the dose expansion data due to few data points after those time points.

[2] = test system: dogs with spontaneous cancer (NHL, mast cell tumor, osteosarcoma); assay: Phase I dose escalation study, tumor response; format: in vivo
Procedure: (§1) This study was a Phase I dose escalating, open label assessment of the safety and biologic activity of KPT-335 in client owned dogs with spontaneous malignancies. Assessment of clinical toxicities and tumor response was performed at each visit. Dogs were evaluated for hematologic and biochemical toxicities every 7 days with routine bloodwork. The initial dose of 1 mg/kg orally twice per week (Monday/Thursday or Tuesday/Friday) was based on previous data from normal laboratory dogs (data not shown) and dose escalation was set at 0.25 mg/kg increments in cohorts of 3 until dose limiting toxicity (DLT) was identified. The DLT was considered to be any grade 3 or 4 hematologic or non-hematologic toxicity based on the established VCOG-CTCAE criteria. […] Disease progression or signs and symptoms definitely related to disease were not considered adverse events (AEs). The maximum tolerated dose (MTD) was considered to be one dose below that at which DLT occurred.
(§2) Tumor assessments were completed prior to study entry, and days 7, 14, 21, and 28. For dogs that continued beyond 4 weeks, response assessments were performed every 2 weeks thereafter, or at the time of suspected tumor progression. Responses were assessed by the investigator according to pre-defined protocol criteria. The response in dogs with assessable disease was performed by clinical examination, ultrasonography, or thoracic radiography. Many lesions were not amenable for quantitative radiographic imaging, but were followed either by serial clinical examination (superficial lesions; palpable lymph nodes) or by ultrasonography (abdominal lymph nodes). Thoracic lesions were assessed by thoracic radiography.
(§3) The response in dogs with measurable disease was judged by the investigator on the basis of Response Evaluation Criteria for Peripheral Nodal Lymphoma in dogs (v1.0). A complete response (CR) was defined as disappearance of all disease on two measurements separated by a minimum period of 3 weeks. A partial response (PR) was defined as greater than 30% reduction in the sum of the longest diameter of the target lesions documented by two assessments separated by at least 3 weeks. An increase of >20% in the size of all measurable tumor areas as measured by the sum of longest diameters of the target lesions taken as reference the smallest sum since initiation of therapy, or the appearance of any new lesion(s) would qualify as progressive disease (PD). […] Dogs who had no evidence of tumor progression and who had not experienced any unacceptable toxicity were eligible for extended treatment cycles. Dose escalation from twice per week administration to three times per week administration in an individual dog was permitted if the dog was tolerating therapy.

[3] = test system: primary canine DLBCL cells; assay: Annexin V apoptosis assay (flow cytometry), primary canine DLBCL; format: cell-based; settings: primary canine DLBCL (sample #1), 100 nM, 24 hours
Procedure: Jurkat cells and primary canine DLBCL cells were cultured for 24 hours in the presence of 100 nM KPT-335 or dimethyl sulfoxide (DMSO). Cells were stained with Annexin V (eBiosciences, San Diego, CA) according to the manufacturer’s instruction. Flow cytometry was performed using a BD LSRII flow cytometer (BD Immunocytometry Systems, San Jose, CA) and results were analyzed using FlowJo software (Tree Star, Ashland, OR).

dogs with NHL = assay: Dose expansion study, tumor response; format: in vivo; settings: 1.5 mg/kg Monday/Wednesday/Friday
Procedure: as §2, §3

[4] = Phase I dose escalation study, toxicity assessment; settings: dog, in vivo, po; orally twice/week (Monday/Thursday), dogs with spontaneous cancer; read-out: maximum tolerated dose (MTD)
Procedure: as §1
Each patient underwent a baseline complete history, physical examination, and pre-dose laboratory assessment that included a complete blood count (CBC), serum biochemistry profile, coagulation parameters (PT/PTT) and urinalysis. Patients were assessed for adverse events on days 7, 14, 21, and 28, and every 2 weeks thereafter at which time all laboratory assessments were repeated. […]

For O=C(/C=C\n1cnc(-c2cc(C(F)(F)F)cc(C(F)(F)F)c2)n1)NNc1ccccn1 [KPT-335], the “overall quality of life” value ([1]; dose escalation study, p = 0.64) was “did not change significantly”, the “overall quality of life” value ([1]; dose expansion study, p = 0.47) was “did not change significantly” and the “clinical benefit (CB: PR or SD >4 weeks), dogs with NHL” value [2] was 9/14. The “clinical benefit, dogs with NHL” value [2] was 64%, the “duration of PR, individual dogs” value [2] was 71 days and 246 days and the “median TTP, responding dogs with NHL” value [2] was 66 days. For the same molecule, the “median duration of treatment, dogs with NHL” value [2] was 10 weeks, the “range of duration of treatment, dogs with NHL” value [2] was 5–35 weeks and the “median duration of SD” value ([2]; 8 dogs with SD) was 58.5 days. The “range of duration of SD” value ([2]; 8 dogs with SD) was 28 to 84 days, the “TTP range, all dogs” value ([2]; 17 dogs) was 14 to 246 days and the “dogs with PD in the first 4 weeks of therapy” value ([2]; 17 dogs) was 7. The “median TTP, all dogs” value ([2]; 17 dogs) was 35 days, the “stable disease (SD), number of dogs with NHL” value ([2]; SD for greater than 28 days) was 7 and the “stable disease (SD), number of dogs” value ([2]; all 17 dogs) was 8. The “dose at which biologic activity was observed” value ([2]; lowest dose level) was 1 mg/kg, the “apoptotic cells (Annexin V+ cells) compared to mock treated cells” value [3] was “increased apoptotic cells” and the CB rate (dogs with NHL) was 67%. For the same molecule, the “TTP range, responders” value (dogs with NHL) was 35 to 354 days, the “clinical benefit (CB), dogs” value (dogs with NHL) was 4/6 and the “dogs with SD for longer than 28 days” value (dogs with NHL) was 4. For the same molecule, the “median TTP, responders” value (dogs with NHL) was 83 days, the “duration of PR, individual dogs” value (dogs with NHL; 1.5 mg/kg) was 35 days and 354 days and the “TTP range, all dogs” value (dogs with NHL; 6 dogs with NHL) was 13 to 354 days. The “median TTP, all dogs” value (dogs with NHL; 6 dogs with NHL) was 55 days and the MTD [4] was 1.75 mg/kg.
